Patent US20130136722A1, “Methods of Ex Vivo Expansion of Blood Progenitor Cells, and Generation of Composite Grafts” (The Board of Trustees of The University of Illinois, priority 2011, published 2013)

How the values were obtained:
[1] = system: NOD/SCID mice; experiment: In vivo bone marrow homing assay; set-up: species or system mouse; conditions: expanded CB cells homing to bone marrow; FIG. 2F
Method: In order to assess whether the lower SRC frequency, or lower hematopoietic chimerism, detected following transplantation of VPA expanded cells was due to a defect in the homing of transplanted cells to the host bone marrow, an in vivo homing assay was performed in NOD/SCID mice.

[2] = system: NOD/SCID mice; experiment: SCID repopulating cell (SRC) frequency by limiting dilution analyses; type: in vivo, mouse; conditions: for (# of NOD/SCID mice engrafted)/(# of mice transplanted): Day 9
Method: Immunodeficient nonobese diabetic/ltsz-scid/scid (NOD/SCID) mice were purchased from Jackson Laboratories (Bar Harbor, Me.) and transplantation assays were performed as described (Araki et al., 2009, Id.; Araki et al., 2007, Id.; Taswell, 1981, Id.). Equal number of primary CD34^+ cells or the progeny of an equal initial number of CD34^+ cells following culture were injected per mouse intravenously. Mice were sacrificed 8 weeks after transplantation, and bone marrow (BM) cells from each mouse were analyzed by flow cytometry to detect multilineage human cell engraftment.
The frequency of SCID-repopulating cells (SRCs) present in VPA-expanded, CD34^+CD90^+ cord blood-derived stem cells was quantitated in comparison to unmanipulated primary cord blood cells by in vivo xeno-transplant studies using limiting dilution analyses as described previously (Conneally et al., 1997, Proc. Natl. Acad. Sci. 94: 9836-41; Bhatia et al., 1997, J Exp Med. 186: 619-24; Wang et al., 1997, Blood 89: 3919-24; Chute et al., 2005, Blood 105: 576-83). The frequency of SRC was 1 in 22,000 (95% Confidence Interval: 1/11,722-1/41,293) in primary CD34^+CD90^+ cells, and 1 in 21,720 (95% Confidence Interval: 1/11,160-1/42,269) in the VPA expanded cultures (Table 5 and FIG. 2E).

[3] = system: cobblestone area-forming cells (CAFC); experiment: Cobblestone area-forming cell (CAFC) assay, limiting dilution on M2-10B4 stromal cells; type: cell-based, human; conditions: for CAFC Frequency/10^4 cells: limiting dilution, mean ± SEM of three independent experiments
Method: Colony-forming cell (CFC) were assayed by plating 5×10^2 cells per dish in semisolid media and were counted after 14 days as described (Araki et al., 2009, Id.). The number of cobble stone area-forming cell (CAFC) was quantitated in primary and expanded CD34+ cells by plating in limiting dilution onto irradiated M2-10B4 stromal cells as described (Araki et al., 2009, Id.; Conneally et al., 1997, Proc. Natl. Acad. Sci. USA. 94: 9836-9841; Taswell, 1981, J. Immunol. 126: 1614-1619).
In order to determine the a correlation between expansion of CD34^+CD90^+ cells and their functional potential as pluripotent hematopoietic stem cells, in vitro functional assays were performed, including assessment of colony-forming cells (CFC), a short-term assay, and cobblestone-area forming cells (CAFC), a long-term assay.

## CCCC(CCC)C(=O)O [VPA, valproic acid]
[1]
  homing efficiency: 1.68%
[2]; 2,000 CD34+CD90+ cells used to initiate ex vivo culture
  (# of NOD/SCID mice engrafted)/(# of mice transplanted): 0/7
[2]; 5,000 CD34+CD90+ cells used to initiate ex vivo culture
  (# of NOD/SCID mice engrafted)/(# of mice transplanted): 2/5
[2]; 10,000 CD34+CD90+ cells used to initiate ex vivo culture
  (# of NOD/SCID mice engrafted)/(# of mice transplanted): 2/7
[2]; 20,000 CD34+CD90+ cells used to initiate ex vivo culture
  (# of NOD/SCID mice engrafted)/(# of mice transplanted): 5/8
[2]; mouse, in vivo
  SRC numbers during ex-vivo culture (in words): maintained SRC numbers
[3]; FIG. 2B
  fold expansion of long term (5 weeks) CAFC: 8.4±1.6 fold
[3]
  CAFC Frequency/10^4 cells: 14.67±0.74 /10^4 cells
[3]; listed as VPA Alone
  CAFC Frequency/10^4 cells: 14.67 ± 0.74 /10^4 cells
